For 1 molecule, viability, T/C and IC50 results are on record in PubChem BioAssay AID1845219 (Molecular Pharmacology Branch, DTP, NCI, 2023).

The subject of the assay is SYO-1 tumor spheroids, viability % test/control. Nature of the assay: Anticancer human tumor SYO-1 cell line growth inhibition.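 As to all read-outs here: spheroids exposed to agents for 7 days before viability read.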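 As to viability, T/C: 100% = DMSO vehicle control.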 To be noted: spheroids with HUVEC and MSC; for viability, T/C: stronger effect = lower value. A digest of the protocol:
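Complex tumor spheroids combined malignant cells with endothelial cells and mesenchymal stem cells. DNA-damaging drugs and DNA repair inhibitors were tested alone and in combination, at half-log dilutions down from clinical Cmax (top 10 microM if Cmax unknown), 0.25% DMSO final.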

As usually defined, the viability, T/C is the ratio of treated to control. The term IC50 denotes the point on the concentration scale where inhibition reaches its midpoint.

The structures appear in SMILES notation. “And” between values parts separate entries of the source, which are not always exact repeats. Equal values may be shown once.

As for `O=C(c1cc(Cc2n[nH]c(=O)c3ccccc23)ccc1F)N1CCN(C(=O)C2CC2)CC1`, the viability, T/C by setting is: (compound 0.0949 µM) 102% (2×) and 103%; (compound 0.3 µM) 100% and 103% and 99.2%; (compound 0.949 µM) 90.7% and 93.7% and 94.1%; (compound 3 µM) 14.7% and 32.7% and 11%; (compound 9.49 µM) 3.59% and 3.04% and 2.51%; (compound 30 µM) 2.83% and 2.91% and 2.43%. For the setting “curve of compound”, the IC50 is 1760 nM and 2160 nM and 1750 nM.
